The subject of test [1] is Cryptococcus neoformans IAM 4514. The experiment in a line: MIC, two-fold agar dilution, C. neoformans IAM 4514. As to conditions: IAM4514. Type of test: cell-based. As to the method: (§1) Minimum inhibitory concentrations (MICs) of nine 4'-N-substituted pradimicin derivatives were determined by two-fold agar dilution method on phosphate-buffered yeast morphology agar (YMA, pH 7.0, Difco Laboratories). A 5-μl of fungal cell suspension containing 2×10^6 cells/ml (2×10^7 cells/ml for Trichophyton mentagrophytes) were spotted on the surface of the agar plates containing test compound. MICs were recorded after 40-hour incubation at 28° C. except for T. mentagrophytes, which required 60-hour incubation to produce visually evaluable growth on the drug-free control plates and were defined as the lowest antibiotic concentrations showing no growth or less than five discrete colonies per spot.
(§2) Medium: yeast morphology agar + 1/15 M phosphate buffer (pH 7.0)
(§3) Incubation conditions: 28° C., 40 hours (C. albicans ATCC 38247 & T.
(§4) Medium: Yeast morphology agar + 1/15 phosphate buffer (pH 7.0).
Background: In agar dilution, organisms are placed on agar that contains the substance at set levels.

The next test concerns Candida albicans 83-2-14. In words: MIC, two-fold agar dilution, C. albicans 83-2-14. Type of test: cell-based. The note with it: 83214, YMA pH 7.0, 28° C., 40 hours. As to the method: as §1, §2, §3, §4
The test system of test [2] is Candida albicans ATCC 32354. In words: MIC, two-fold agar dilution, C. albicans ATCC 32354. It counts as cell-based. As to conditions: ATCC32354, YMA pH 7.0, 28° C., 40 hours. As to the method: as §1, §2, §3, §4
For test [3], the system named is Saccharomyces cerevisiae ATCC 9763. In words: MIC, two-fold agar dilution, S. cerevisiae ATCC 9763. The note with it: ATCC9763, YMA pH 7.0, 28° C., 40 hours. Type of test: cell-based. How it is done:
as §1, §2, §3, §4

For test [4], the system named is Aspergillus fumigatus IAM 2034. In words: MIC, two-fold agar dilution, A. fumigatus IAM 2034. As to conditions: IAM2034. It counts as cell-based. As to the method: as §1, §2, §3, §4
The subject of test [5] is Trichophyton mentagrophytes #4329. The experiment in a line: MIC, two-fold agar dilution, T. mentagrophytes #4329. It counts as cell-based. As to the method:
as §1, §2, §3
(§5) mentagrophytes #4329: 28° C., 60 hours).
as §4

The test system of test [6] is Candida albicans IAM 4888. The experiment in a line: MIC, two-fold agar dilution, C. albicans IAM 4888. The note with it: IAM4888, YMA pH 7.0, 28° C., 40 hours. Type of test: cell-based. As to the method: as §1, §2, §3, §4
The test system of test [7] is Cryptococcus neoformans D49. The experiment in a line: MIC, two-fold agar dilution, C. neoformans D49. Type of test: cell-based. The note with it: YMA pH 7.0, 28° C., 40 hours. As to the method:
as §1, §2, §3, §4

Test [8] deals with Candida albicans A9540. In words: MIC, two-fold agar dilution, C. albicans A9540. Type of test: cell-based. As to the method:
as §1, §2, §3, §4

The subject of test [9] is Candida albicans A9540. The experiment in a line: animal or person. Type of test: in vivo, male ICR mice infected with Candida albicans A9540. As to the method:
(§6) The in vivo therapeutic efficacies of seven 4'-N-substituted pradimicin derivatives, KHM-1, KHM-2, KHM-3, KHM-4, KHM-5, KHM-6 and KHM-7 were evaluated in the mouse infected with Candida albicans A9540 and Aspergillus fumigatusIAM 2034. Groups of five specific-pathogen-free male ICR mice weighing 20-25 g at each dose level were intravenously infected with approximately 10 times the 50% lethal dose of C. albicans A9540 (1×10^6 cells/mouse) or A. fumigatus IAM 2034 (1×10^7 cells/mouse). Immediately after the fungal infection, test compounds dissolved with 10% DMSO in distilled water were intravenously given to the mouse at the dosed volume of 0.1 ml/10 g of body weight. […] Untreated control animals died 7 to 13 days post-infection.

Test [10] concerns Aspergillus fumigatus IAM 2034. In words: Therapeutic efficacy in Aspergillus fumigatus systemic infection in mice. It counts as in vivo, male ICR mice infected with Aspergillus fumigatus IAM 2034. As to conditions: IAM2034, 480 h. How it is done: as §6
The test system of test [11] is Candida albicans ATCC 38247. The experiment in a line: MIC, two-fold agar dilution, C. albicans ATCC 38247. It counts as cell-based. The note with it: ATCC38247, YMA pH 7.0, 28° C., 60 hours (table footnote). How it is done:
as §1, §2, §3, §5, §4

The next test deals with Candida tropicalis 85-8. In words: MIC, two-fold agar dilution, C. tropicalis 85-8. Type of test: cell-based. As to conditions: 858, YMA pH 7.0, 28° C., 40 hours. As to the method: as §1, §2, §3, §4
Test [12] concerns Candida tropicalis IFO 10241. The experiment in a line: MIC, two-fold agar dilution, C. tropicalis IFO 10241. As to conditions: IFO10241, YMA pH 7.0, 28° C., 40 hours. Type of test: cell-based. How it is done: as §1, §2, §3, §4
Setting [13] is: Cryptococcus neoformans IAM 4514, YMA pH 7.0, 28° C., 40 hours, read-out: MIC.
Setting [14] is: Table 3, Cryptococcus neoformans IAM 4514, YMA, read-out: MIC Cn-2.
The mark [15] stands for this setting: Aspergillus fumigatus IAM 2034, YMA pH 7.0, 28° C., 40 hours, read-out: MIC.
Setting [16] is: Table 3, Aspergillus fumigatus IAM 2034, YMA, read-out: MIC Af-3.
Where [17] appears, read: Table 3, Trichophyton mentagrophytes #4329, YMA, read-out: MIC TM-4.
Where [18] appears, read: Trichophyton mentagrophytes #4329, YMA pH 7.0, 28° C., 60 hours, read-out: MIC.
The mark [19] stands for this setting: Candida albicans A9540, YMA pH 7.0, 28° C., 40 hours, read-out: MIC.
Where [20] appears, read: Table 3, Candida albicans A9540, YMA, read-out: MIC Ca-4.

In brackets after ≈: the same amount, converted by molar mass. Read-outs that look alike come from different tables or passages of the source.

For the molecule `COc1cc(O)c2c(c1)C(=O)c1c(cc3c(c1O)-c1c(cc(C)c(C(=O)N[C@H](CO)C(=O)O)c1O)[C@H](O[C@@H]1O[C@H](C)[C@H](N(C)C#N)[C@H](O[C@@H]4OC[C@@H](O)[C@H](O)[C@H]4O)[C@H]1O)[C@H]3O)C2=O` [KHM-3, 4'-Cyanooradimicin FA-1], the MIC was determined as 6.3 µg/mL (≈ 7.14 µM) in test [1] (setting [13]); 6.3 µg/mL (≈ 7.14 µM) in test [1] (setting [14]); 6.3 µg/mL (≈ 7.14 µM) in the test with Candida albicans 83-2-14; 6.3 µg/mL (≈ 7.14 µM) in test [2]; 1.6 µg/mL (≈ 1.81 µM) in test [3]; 25 µg/mL (≈ 28.4 µM) in test [4] (setting [15]). In addition, the MIC was found to be 25 µg/mL (≈ 28.4 µM) in [4] (setting [16]); 50 µg/mL (≈ 56.7 µM) in test [5] (setting [17]); 50 µg/mL (≈ 56.7 µM) in test [5] (setting [18]); 6.3 µg/mL (≈ 7.14 µM) in [6]; 6.3 µg/mL (≈ 7.14 µM) in [7]; 6.3 µg/mL (≈ 7.14 µM) in the test with Candida albicans A9540 [8] (setting [19]). Also, the MIC stood at 6.3 µg/mL (≈ 7.14 µM) in the test on Candida albicans A9540 [8] (setting [20]), 3.1 µg/mL (≈ 3.52 µM) in test [11], 12.5 µg/mL (≈ 14.2 µM) with Candida tropicalis 85-8 and 12.5 µg/mL (≈ 14.2 µM) in [12]. Besides, the ED50 in the test with Candida albicans A9540 [9] (480 h, Table 3, Candida albicans A9540, iv, read-out: PD50 (mice) Ca-4) was more than 50 mg/kg; in the test with Candida albicans A9540 [9] (Candida albicans, A9540, 480 h, Table 2, C. albicans, mice, iv, 95% confidence limits in parentheses, read-out: PD50 (50% protection dose)) it was more than 50 mg/kg; in test [10] (Aspergillus fumigatus, Table 2, A. fumigatus, mice, iv, 95% confidence limits in parentheses, read-out: PD50 (50% protection dose)), more than 50 mg/kg; in test [10] (Table 3, Aspergillus fumigatus IAM 2034, iv, read-out: PD50 (mice) Af-3), more than 50 mg/kg. The responders at 12.5 mg/kg with Candida albicans A9540 [9] (Candida albicans, A9540, 480 h, C. albicans, mice, 12.5 mg/kg iv, 20th day post-infection, read-out: S/T (No. of survivors/tested) (converted)) was 0%; in [10] (Aspergillus fumigatus, A. fumigatus, mice, 12.5 mg/kg iv, 20th day post-infection, read-out: S/T (No. of survivors/tested) (converted)), 0%. In addition, the responders at 25 mg/kg in the test with Candida albicans A9540 [9] (Candida albicans, A9540, 480 h, C. albicans, mice, 25 mg/kg iv, 20th day post-infection, read-out: S/T (No. of survivors/tested) (converted)) is 0%; in test [10] (Aspergillus fumigatus, A. fumigatus, mice, 25 mg/kg iv, 20th day post-infection, read-out: S/T (No. of survivors/tested) (converted)), 0%. Moreover, the responders at 50 mg/kg in the test with Candida albicans A9540 [9] (Candida albicans, A9540, 480 h, C. albicans, mice, 50 mg/kg iv, 20th day post-infection, read-out: S/T (No. of survivors/tested) (converted)) was 40%; in test [10] (Aspergillus fumigatus, A. fumigatus, mice, 50 mg/kg iv, 20th day post-infection, read-out: S/T (No. of survivors/tested) (converted)), 0%.
Consider `COc1cc(O)c2c(c1)C(=O)c1c(cc3c(c1O)-c1c(cc(C)c(C(=O)N[C@H](C)C(=O)O)c1O)[C@H](O[C@@H]1O[C@H](C)[C@H](NC=N)[C@H](O[C@@H]4OC[C@@H](O)[C@H](O)[C@H]4O)[C@H]1O)[C@H]3O)C2=O` [KHM-9, 4'-Amidinopradimicin C], for which the MIC came out at 3.1 µg/mL (≈ 3.63 µM) in test [1] (setting [13]); 3.1 µg/mL (≈ 3.63 µM) in test [1] (setting [14]); 12.5 µg/mL (≈ 14.6 µM) against Candida albicans 83-2-14; 6.3 µg/mL (≈ 7.38 µM) in test [2]; 1.6 µg/mL (≈ 1.87 µM) in test [3]; 1.6 µg/mL (≈ 1.87 µM) in test [4] (setting [15]). In addition, the MIC was 1.6 µg/mL (≈ 1.87 µM) in test [4] (setting [16]); 3.1 µg/mL (≈ 3.63 µM) in test [5] (setting [17]); 3.1 µg/mL (≈ 3.63 µM) in test [5] (setting [18]); 6.3 µg/mL (≈ 7.38 µM) in [6]; 12.5 µg/mL (≈ 14.6 µM) in test [7]; 12.5 µg/mL (≈ 14.6 µM) in the test on Candida albicans A9540 [8] (setting [19]). Also, the MIC is 12.5 µg/mL (≈ 14.6 µM) in the test on Candida albicans A9540 [8] (setting [20]), 50 µg/mL (≈ 58.6 µM) with Candida tropicalis 85-8 and more than 100 µg/mL in test [12].

Usually MIC stands for the lowest concentration that inhibits growth of the organism.

The record behind these values is patent US6281342A, “Pradimicin compounds” (Bristol-Myers Squibb Company, priority 1994, dated 2001).
